This note sets out measurements from patent US20230348426A1, “OXOPYRROLIDINE FPR2 AGONISTS” (Bristol-Myers Squibb Company, priority 2020, published 2023).

One assay addresses human FPR2 (Homo sapiens (Human), UniProt P25090). Nature of the assay: FPR2 cyclic adenosine monophosphate (cAMP) assay. It is filed as cell-based. The conditions noted are these: CHO cells overexpressing human FPR2; forskolin 5 µM; inhibition of cAMP production; read-out: hFPR2 cAMP2 EC50. The essentials:
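CHO cells overexpressing human FPR2 (2,000/well) incubated 30 min at room temperature with compound (0.020 nM–100 µM, 1% DMSO), 5 µM forskolin and 200 µM IBMX.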
On the technique in general: cAMP levels reflect the balance of adenylyl cyclase and phosphodiesterase activity.

For a further assay, the target named is human FPR1 (Homo sapiens (Human), UniProt P21462). Nature of the assay: FPR1 cyclic adenosine monophosphate (cAMP) assay. It is filed as cell-based. The conditions noted are these: CHO cells overexpressing human FPR1; forskolin 10 µM; inhibition of cAMP production; read-out: hFPR1 cAMP EC50. The essentials:
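CHO cells overexpressing human FPR1 (4,000 cells/well) stimulated with 10 µM forskolin plus 200 µM IBMX in the presence of compound (0.020 nM–100 µM, 1% DMSO), 30 min at room temperature. Intracellular cAMP measured by HTRF. Inhibition of cAMP production fitted to a 4-parameter logistic equation.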

Structures are written as SMILES.

Usually EC50 stands for the concentration needed to bring the measured effect to its halfway point.

Sequence of human FPR2 (P25090 whole entry): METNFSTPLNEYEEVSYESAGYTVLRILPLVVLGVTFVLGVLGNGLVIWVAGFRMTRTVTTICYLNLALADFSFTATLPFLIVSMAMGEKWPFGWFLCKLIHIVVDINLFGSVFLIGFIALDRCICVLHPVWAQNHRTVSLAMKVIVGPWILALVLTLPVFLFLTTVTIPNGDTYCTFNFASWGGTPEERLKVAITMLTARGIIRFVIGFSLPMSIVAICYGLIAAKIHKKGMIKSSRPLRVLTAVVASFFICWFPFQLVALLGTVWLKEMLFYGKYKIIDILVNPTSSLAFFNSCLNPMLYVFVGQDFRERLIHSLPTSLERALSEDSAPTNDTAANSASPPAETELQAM
Sequence of human FPR1 (P21462 whole entry): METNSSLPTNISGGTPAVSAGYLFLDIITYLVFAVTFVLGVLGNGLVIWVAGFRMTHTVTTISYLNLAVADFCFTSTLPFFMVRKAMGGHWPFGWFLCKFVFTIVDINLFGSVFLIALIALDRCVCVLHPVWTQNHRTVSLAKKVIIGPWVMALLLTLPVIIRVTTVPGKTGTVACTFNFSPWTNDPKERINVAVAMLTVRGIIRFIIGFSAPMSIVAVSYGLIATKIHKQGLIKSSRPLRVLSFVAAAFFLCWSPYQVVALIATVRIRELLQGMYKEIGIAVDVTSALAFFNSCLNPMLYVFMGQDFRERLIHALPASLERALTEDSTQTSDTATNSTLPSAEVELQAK

In the case of `COc1cc(F)c([C@@H]2CN(c3c(C)ccn(CC4CCO4)c3=O)C(=O)[C@H]2NC(=O)c2ccc(OC(F)(F)F)cc2)c(F)c1` (stereo partly shown) [Example 615], the figures for the EC50 at human FPR2 and on human FPR1 were 8.7 nM and 5.3 nM, respectively.
Regarding `COc1cc(F)c([C@@H]2CN(c3c(C)ccn(CC4CCO4)c3=O)C(=O)[C@H]2NC(=O)c2ccc(OC(F)F)cc2)c(F)c1` (stereo partly shown) [Example 616], the EC50 on human FPR2 came out at 9.4 nM; at human FPR1, 20 nM.
Take `COc1cc(F)c([C@@H]2CN(c3c(C)ccn(CC4CCO4)c3=O)C(=O)[C@H]2NC(=O)c2ccc(OC(F)F)cc2)c(F)c1` (stereo partly shown) [Example 617]: the EC50 on human FPR2 amounted to 9.1 nM; at human FPR1, 18 nM.
As for `COc1cc(F)c([C@@H]2CN(c3c(C)ccn(CC4CCO4)c3=O)C(=O)[C@H]2NC(=O)c2ccc(Cl)cc2)c(F)c1` (stereo partly shown) [Example 618], the EC50 at human FPR2 turned out to be 1 nM; at human FPR1, 9.5 nM.
In the case of `COc1cc(F)c([C@@H]2CN(c3c(C)ccn(CC4CNC(=O)O4)c3=O)C(=O)[C@H]2NC(=O)c2ccc(OC(F)F)cc2)c(F)c1` (stereo partly shown) [Example 619], the EC50 on human FPR2 was 9.4 nM; on human FPR1, 64 nM.
Regarding `COc1ccc([C@@H]2CN(c3ccnn(CC(F)F)c3=O)C(=O)[C@H]2NC(=O)c2ccc(OC(F)F)cc2)c(F)c1` [Example 620], the EC50 on human FPR2 was determined as 7.4 nM; at human FPR1, 6.5 nM.
For `COc1cc(F)c([C@@H]2CN(c3c(C)ccn([C@H]4COC[C@@H]4O)c3=O)C(=O)[C@H]2NC(=O)c2ccc(Cl)cc2)c(F)c1` [Example 621] the same measures were 90 nM and 64 nM.
Taken in the same sequence, the figures for `COc1cc(F)c([C@@H]2CN(c3c(C)ccn([C@H]4COC[C@@H]4O)c3=O)C(=O)[C@H]2NC(=O)c2ccc(OC(F)(F)F)cc2)c(F)c1` [Example 622] were 8.4 nM and 2.2 nM.
Take `COc1cc(F)c([C@@H]2CN(c3c(C)ccn([C@H]4COC[C@@H]4O)c3=O)C(=O)[C@H]2NC(=O)c2ccc(Cl)cc2)c(F)c1` [Example 623]: the half-maximal effective concentration (EC50) at human FPR2 is 11.5 nM; on human FPR1 it was 160 nM.
In the case of `COc1cc(F)c([C@@H]2CN(c3c(C)ccn([C@H]4COC[C@@H]4O)c3=O)C(=O)[C@H]2NC(=O)c2ccc(OC(F)F)cc2)c(F)c1` [Example 624], the figures for the EC50 on human FPR2 and on human FPR1 were 1.5 nM and 9.3 nM, respectively.
In the case of `COc1cc(F)c([C@@H]2CN(c3c(C)ccn(C4CCS(=O)(=O)CC4)c3=O)C(=O)[C@H]2NC(=O)c2ccc(OC(F)F)cc2)c(F)c1` [Example 626], the EC50 at human FPR2 stood at 0.7 nM; at human FPR1 it was 13 nM.
Take `COc1cc(F)c([C@@H]2CN(c3c(C)ccn(C4CCS(=O)(=O)CC4)c3=O)C(=O)[C@H]2NC(=O)c2ccc(OC(F)(F)F)cc2)c(F)c1` [Example 627]: the EC50 came out at 8.6 nM on human FPR2 and 2 nM at human FPR1.
With `COc1cc(F)c([C@@H]2CN(c3nn(C4COC4)c(=O)cc3C)C(=O)[C@H]2NC(=O)c2ccc(OC(F)F)cc2)c(F)c1` [Example 628], the EC50 on human FPR2 was 4.7 nM; at human FPR1, 59 nM.
Take `COc1cc(F)c([C@@H]2CN(c3cn(C)nc3OC)C(=O)[C@H]2NC(=O)c2ccc(Cl)cc2)c(F)c1` [Example 629]: the values for the EC50 on human FPR2 and at human FPR1 were 9.9 nM and 670 nM, respectively.
Take `COc1cc(F)c([C@@H]2CN(c3cn(C)nc3OC)C(=O)[C@H]2NC(=O)c2ccc(OC(F)F)cc2)c(F)c1` [Example 630]: the EC50 at human FPR2 is 5.2 nM; at human FPR1, 1100 nM.
Turning to `COc1cc(F)c([C@@H]2CN(c3cn(C)nc3OC)C(=O)[C@H]2NC(=O)c2ccc(OC(F)(F)F)cc2)c(F)c1` [Example 631], the figures for the EC50 at human FPR2 and at human FPR1 were 10 nM and 160 nM, respectively.
For `COc1ccc([C@@H]2CN(c3c(C)ccn(CC(F)F)c3=O)C(=O)[C@H]2NC(=O)c2ccc(OC(F)F)cc2)cc1` [Example 632], the EC50 came to 0.9 nM at human FPR2 and 3.7 nM on human FPR1.
As to `COCCn1ccc(C)c(N2C[C@@H](c3c(F)cc(OC)cc3F)[C@H](NC(=O)c3ccc(Cl)cc3)C2=O)c1=O` [Example 633], the values for the EC50 on human FPR2 and on human FPR1 were 1.4 nM and 4.3 nM, respectively.
As for `COc1cc(F)c([C@@H]2CN(c3c(C)ccn(CC(O)C(F)(F)F)c3=O)C(=O)[C@H]2NC(=O)c2ccc(OC(F)F)cc2)c(F)c1` (stereo partly shown) [Example 634], the EC50 was 2 nM at human FPR2 and 2.3 nM on human FPR1.
On to `COCCn1ccc(C)c(N2C[C@@H](c3ccc(OC)cc3F)[C@H](NC(=O)c3ccc(Cl)cc3)C2=O)c1=O` [Example 635], for which the EC50 was 3.7 nM on human FPR2 and 6.3 nM at human FPR1.
With `COc1ccc([C@@H]2CN(c3c(C)ccn(CCO)c3=O)C(=O)[C@H]2NC(=O)c2ccc(OC(F)(F)F)cc2)c(F)c1` [Example 636], the EC50 on human FPR2 amounted to 1.6 nM; on human FPR1, 3.2 nM.
As to `COc1cc(F)c([C@@H]2CN(c3c(C)ccn(C4COC4)c3=O)C(=O)[C@H]2NC(=O)c2ccc(OC(F)(F)F)cc2)c(F)c1` [Example 637], the values for the EC50 at human FPR2 and on human FPR1 were 6.6 nM and 5.7 nM, respectively.
With `CCn1cc(C)c(C)c(N2C[C@@H](c3c(F)cc(OC)cc3F)C(NC(=O)c3ccc(OC(F)(F)F)cc3)C2=O)c1=O` (stereo partly shown) [Example 638], the EC50 on human FPR2 came out at 14 nM; at human FPR1, 290 nM.
In the case of `CCn1cc(C)c(C)c(N2C[C@@H](c3c(F)cc(OC)cc3F)C(NC(=O)c3ccc(OC(F)(F)F)cc3)C2=O)c1=O` (stereo partly shown) [Example 639], the values for the EC50 at human FPR2 and on human FPR1 were 5.8 nM and 57 nM, respectively.
For the compound `COCCn1cc(C)c(C)c(N2C[C@@H](c3c(F)cc(OC)cc3F)C(NC(=O)c3ccc(Cl)cc3)C2=O)c1=O` (stereo partly shown) [Example 640], the EC50 at human FPR2 came to 2.2 nM; on human FPR1, 1200 nM.
On to `COCCn1cc(C)c(C)c(N2C[C@@H](c3c(F)cc(OC)cc3F)C(NC(=O)c3ccc(Cl)cc3)C2=O)c1=O` (stereo partly shown) [Example 641], for which the EC50 at human FPR2 is 2.8 nM; on human FPR1 it was 1000 nM.
In the case of `CCn1cc(C)c(C)c(N2C[C@@H](c3c(F)cc(OC)cc3F)[C@H](NC(=O)c3ccc(OC(F)F)cc3)C2=O)c1=O` [Example 642], the EC50 turned out to be 15 nM on human FPR2 and 570 nM on human FPR1.
Turning to `COc1ccc([C@@H]2CN(c3cccn(CC(O)C(F)(F)F)c3=O)C(=O)[C@H]2NC(=O)c2ccc(OC(F)F)cc2)cc1` (stereo partly shown) [Example 643], the results for the EC50 on human FPR2 and on human FPR1 were 2.6 nM and 75 nM, respectively.
For `COc1ccc([C@@H]2CN(c3cccn(CC(O)C(F)(F)F)c3=O)C(=O)[C@H]2NC(=O)c2ccc(OC(F)F)cc2)cc1` (stereo partly shown) [Example 644], the EC50 at human FPR2 came out at 2.1 nM; on human FPR1, 64 nM.
Regarding `COc1ccc([C@@H]2CN(c3ccnn(CCC(F)(F)F)c3=O)C(=O)[C@H]2NC(=O)c2ccc(OC(F)F)cc2)cc1` [Example 645], the EC50 at human FPR2 is 2.8 nM; on human FPR1, 190 nM.
For `COc1cc(F)c([C@@H]2CN(c3c4c(cn(CCO)c3=O)CCCC4)C(=O)[C@H]2NC(=O)c2ccc(OC(F)F)cc2)c(F)c1` [Example 646] the same measures were 16 nM and 670 nM.
On to `CCn1ccc(N2C[C@@H](c3c(F)cc(OC)cc3F)[C@H](NC(=O)c3ccc(Cl)cc3)C2=O)n1` [Example 647], for which the EC50 at human FPR2 was 1.5 nM; on human FPR1, 22 nM.
Taken in the same sequence, the figures for `CCn1ccc(N2C[C@@H](c3c(F)cc(OC)cc3F)[C@H](NC(=O)c3ccc(OC(F)F)cc3)C2=O)n1` [Example 648] were 0.7 nM and 4.1 nM.
Regarding `CCn1ccc(N2C[C@@H](c3c(F)cc(OC)cc3F)[C@H](NC(=O)c3ccc(OC(F)(F)F)cc3)C2=O)n1` [Example 649], the EC50 on human FPR2 was 1.3 nM; at human FPR1, 7.8 nM.
`COCCn1ccnc1N1C[C@@H](c2c(F)cc(OC)cc2F)[C@H](NC(=O)c2ccc(Cl)cc2)C1=O` [Example 650]: the figures for the EC50 at human FPR2 and on human FPR1 were 11 nM and 1700 nM, respectively.
As for `COCCn1ccnc1N1C[C@@H](c2c(F)cc(OC)cc2F)[C@H](NC(=O)c2ccc(OC(F)F)cc2)C1=O` [Example 651], the EC50 worked out at 3.5 nM at human FPR2 and 780 nM at human FPR1.
With `COCCn1ccnc1N1C[C@@H](c2c(F)cc(OC)cc2F)[C@H](NC(=O)c2ccc(OC(F)(F)F)cc2)C1=O` [Example 652], the EC50 on human FPR2 was determined as 7.2 nM; on human FPR1, 700 nM.
As to `COc1cc(F)c([C@@H]2CN(c3c(C)ccn(CC(F)F)c3=O)C(=O)[C@H]2NC(=O)c2ccc(Cl)cc2)c(F)c1` [Example 653], the EC50 was 3.3 nM at human FPR2 and 12 nM on human FPR1.
For `COc1cc(F)c([C@@H]2CN(c3c(C)ccn(C4CCOC4)c3=O)C(=O)[C@H]2NC(=O)c2ccc(Cl)cc2)c(F)c1` (stereo partly shown) [Example 654] the same measures were 1 nM and 12 nM.
`COc1cc(F)c([C@@H]2CN(c3c(C)ccn(C4CCOC4)c3=O)C(=O)[C@H]2NC(=O)c2ccc(OC(F)(F)F)cc2)c(F)c1` (stereo partly shown) [Example 655]: the EC50 on human FPR2 turned out to be 3.8 nM; at human FPR1 it was 1.2 nM.
As to `COc1ccc([C@@H]2CN(c3cccn(CC(O)C(F)(F)F)c3=O)C(=O)[C@H]2NC(=O)c2ccc(OC(F)(F)F)cc2)cc1` (stereo partly shown) [Example 656], the EC50 worked out at 2.5 nM on human FPR2 and 13 nM on human FPR1.
For the compound `COc1ccc([C@@H]2CN(c3cccn(CC(O)C(F)(F)F)c3=O)C(=O)[C@H]2NC(=O)c2ccc(OC(F)(F)F)cc2)cc1` (stereo partly shown) [Example 657], the EC50 at human FPR2 amounted to 2 nM; on human FPR1, 45 nM.
For the compound `COCCn1ncc(C)c(N2C[C@@H](c3c(F)cc(OC)cc3F)[C@H](NC(=O)c3ccc(OC(F)F)cc3)C2=O)c1=O` [Example 658], the EC50 on human FPR2 came out at 3.4 nM; at human FPR1, 1.7 nM.
For the compound `COc1cc(F)c([C@@H]2CN(c3c(C)ccn(C(F)(F)CO)c3=O)C(=O)[C@H]2NC(=O)c2ccc(OC(F)(F)F)cc2)c(F)c1` [Example 659], the EC50 at human FPR2 was determined as 1 nM; on human FPR1, 1.3 nM.
